Measured values taken from patent publication US7220780B2, “Naaladase inhibitors for treating retinal disorders and glaucoma” (Guilford Pharmaceuticals Inc., priority 2000, dated 2007).
Peptide text beside a SMILES is read from it.

How the values were obtained:
NAALADase = NAALADase (Rattus norvegicus, UniProt P70627); conditions: NAAG as substrate of NAALADase; cited from earlier work
BB/W rats = assay: Retinal pathology in diabetic BB/W rats (basement membrane thickness, E/P ratio); format: in vivo, rat; conditions: for BM THICKNESS (nm) ± SD (n = 3) / E/P RATIO (n = 8–10): diabetic rats
Method: Four (4) groups of rats received daily insulin injections to maintain their glucose levels at about 350 mg/dl. Starting at the onset of hyperglycemia, NAALADase inhibitor 2-(3-sulfanylpropyl)-pentanedioic acid was administered daily for 6 months to one group of BB/W rats at a dose of 10 mg/kg and to a second group of BB/W rats at a dose of 30 mg/kg. A third group of BB/W rats and a fourth group of non-diabetic rats received daily vehicle treatment (50 mM Hepes buffered saline).
After six (6) months of NAALADase inhibitor or vehicle treatment, the rats were sacrificed and their eyes were removed. From each rat, one eye was processed for elastase digest while the other eye was processed for transmission electron microscopy (TEM) and basement membrane (BM) thickness.
Retinal digests were prepared using elastase on retinas as described in Layer, N. , Invest Ophthalmol Vis Sci (1993) 34:2097. Eyes were removed from recently killed BB/W rats (n=25) and age-matched transgenic controls (n=10). The retinas (n=35) were fixed at room temperature by immersing the whole eye (slit at limbus) in 4% (w/v) paraformaldehyde in 50 mmol/L Na-K phosphate buffer with 8% sucrose. The fixed retinas were rinsed in deionized water and were incubated for 3 minutes in a 37° C. agitating water bath in 40 units/mL elastase in Na-K phosphate buffer with 150 mmol/L NaCl and 5 mmol/L ethylenediamine tetraacetic acid (EDTA), pH 6.5. The tissues were washed overnight in 100 mmol/L Tris-HCL (pH 8.5) and then transferred to deionized water for removal of the loosened vitreous and digested neural elements by gentle agitation using the sides of closed forceps and the sides and ends of very fine brushes. After all loose tissues were removed, the retinas were incubated once more in fresh enzyme for 3 minutes and then subjected to a second overnight wash at room temperature in Tns-HCl buffer. On the third day, the retinas were again transferred to deionized water for additional removal of digested neural elements. The vascular network that was completely free of nonvascular elements was mounted flat by flotation in Ca^2+ and Mg^2+ free Dulbecco's PBS on siliconized slides (#S1308, Oncor, Gaithersburg, Md.). After air drying in a dust free environment, the mounts of the retinal microvasculature were stained using periodic acid Schiff reaction and hematoxylin counterstaining, as described in Luna, L., ed. Manual of Histologic Staining Methods of the Armed Forces Institute of Pathology (1968) McGraw-Hill, New York, N.Y. The preparations were then examined by light microscopy and photographed.
The stained and intact retinal whole mounts were coded and subsequent counting was done masked, as described in Cuthbertson, R., Invest Ophthalmol Vis Sci. (1986) 27:1659-1664).
Ten fields at ×100 magnification were counted for endothelial and pericyte cells using previously described morphologic criteria (see Kuwabara, T., Arch Ophthalmol. (1960) 64:904-911). In every sample, at least 200 cells were counted from the mid zone of the retina. Mean values for endothelial cell/pericyte (E/P) ratios were initially calculated in 3 retinas from each of the four (4) groups of rats.
Each eye was fixed in 4% glutaraldehyde and dissected free of sclera and choroids, then trimmed and postfixed in 1% osmium tetroxide. After dehydration and embedding, thin sections were stained with uranyl acetate and lead citrate. Initially, EM thickness of retinal capillaries from 3 non-diabetic rats receiving vehicle, 3 diabetic animals receiving 10 mg/kg 2-(3-sulfanylpropyl)-pentanedioic acid, and 3 diabetic rats receiving 30 mg/kg 2-(3-sulfanylpropyl)-pentanedioic acid were compared with 3 diabetic rats receiving a vehicle. At least 10 capillaries per eye from the inner nuclear and plexiform layers were photographed at a magnification of 10,000×. Exact magnification was determined for each set of negatives with a 28,800 line/inch calibration grid. Negatives were enlarged 3×. […]

male Brown Norway rats [1] = assay: Experimental rat glaucoma (IOP elevation by hypertonic saline), optic nerve fiber counting; format: in vivo; conditions: 10 mg/kg daily i.p.
Method: (§1) All experiments complied with the Association for Research in Vision and Ophthalmology Statement for the Use of Animals in Ophthalmic and Vision Research. 82 male Brown Norway rats (Rattus norvegicus), each weighing approximately 250 gm, were treated using procedures approved by the Animal Care Committee of the Johns Hopkins University School of Medicine. The rats were housed with a 12 hour light/12 hour dark cycle and fed ad libitum .
EXPERIMENTAL GLAUCOMA: Unilateral elevation of IOP was produced in 56 rats by microinjection of hypertonic saline into episcleral veins, following procedures described in Morrison, J. et al., IOVS (March 1998) 39:526-531. Beginning on the day of IOP elevation, the rats were treated daily with intraperitoneal injections of either a vehicle (23 rats with 50 mM HEPES-buffered saline) or a NAALADase inhibitor (11 rats with 10 mg/kg of 2-[[(2,3,4,5,6-pentafluorobenzyl)hydroxyphosphinyl]-methyl]pentanedioic acid (“Compound A”) and 22 rats with 10 mg/kg of 2-(3-sulfanylpropyl)pentanedioic acid (“Compound B”)). 11 saline treated rats, 11 Compound A treated rats and 11 Compound B treated rats were sacrificed at 8 weeks, and the remaining rats at 12 weeks, after initial IOP elevation.
(§2) OPTIC NERVE COUNTING: The rats were sacrificed by exsanguination under deep pentobarbital anesthesia. They were perfused through the heart with 2% paraformaldehyde/2% glutaraldehyde in 0.1 M phosphate buffer, pH 7.2, and the eyes with attached optic nerves were removed. A cross-section of the optic nerve from both experimental (glaucoma or transection) and control eyes was removed 1.5 mm posterior to the globe, 1 mm in thickness, and post-fixed in 2% osmium tetroxide in buffer. These were processed into epoxy resin, sectioned at 1 micron and stained with toluidine blue.
(§3) The area of the optic nerve cross-section was measured by outlining its outer border at 10×magnification on an image analysis system (Universal Imaging Corp., Westchester, Pa.) with Synsys digital camera and Metamorph software. Three area measurements were taken and the mean value was determined. To measure the density and fiber diameter distributions, images were captured with a 100× phase contrast objective from 10 different areas of each nerve. These were edited to eliminate non-neural objects and the size of each axon internal to the myelin sheath (its minimum diameter) and the density of axons/square mm were calculated for each image and nerve. The mean density was multiplied by total nerve area to yield fiber number for each nerve. The total fiber number in glaucoma or transection nerves was compared to the normal, fellow eye of each rat to yield a percent loss value. The number of axons counted among the 10 images was an approximately 20% sample of the 80-90,000 axons in normal rat nerves. The person measuring axon number was masked to the protocol conducted on the nerves.

male Brown Norway rats [2] = assay: Optic nerve transection in rats, optic nerve fiber counting; format: in vivo, Rattus norvegicus; conditions: for FIBER NUMBER ± SEM / PERCENT DIFFERENCE ± SEM: 10 mg/kg daily i.p.; for PERCENT DIFFERENCE ± SEM: transected vs normal eye
Method: as §1
OPTIC NERVE TRANSECTION: The optic nerve was transected unilaterally in 26 rats under intraperitoneal pentobarbital anesthesia. The conjunctiva was opened with scissors and the optic nerve exposed by traction on extraocular muscles. The transection was performed with microscissors 5 mm posterior to the globe, with specific attention to avoidance of injury to major ocular blood vessels. Immediately after transection, the retina was examined ophthalmoscopically to assure that the retinal arterial blood supply was not disrupted. The conjunctiva was closed with absorbable suture and the eye dressed with antibiotic ointment. Beginning on the day of transection, the rats were treated daily with intraperitoneal injections of either a vehicle (9 rats with 50 mM HEPES-buffered saline) or a NAALADase inhibitor (8 rats with 10 mg/kg of Compound A and 9 rats with 10 mg/kg of Compound B). 5 saline treated rats, 3 Compound A treated rats and 4 Compound B treated rats were sacrificed at 2 weeks, and the remaining rats at 4 weeks, after transection.
as §2, §3

[3] = 10 mg/kg daily for 6 months, 10 mg/kg
[4] = 10 mg/kg daily for 6 months, listed as NAALADASE INHIBITOR, 10 mg/kg
[5] = 30 mg/kg daily for 6 months, 30 mg/kg
[6] = 30 mg/kg daily for 6 months, listed as NAAALADASE INHIBITOR, 30 mg/kg
[7] = high dose (30 mg/kg), six months, vs diabetic vehicle
[8] = low dose (10 mg/kg), six months, vs diabetic vehicle
[9] = 2 weeks survival after transection
[10] = 4 weeks survival after transection

NAALADase, sequence (P70627 whole entry): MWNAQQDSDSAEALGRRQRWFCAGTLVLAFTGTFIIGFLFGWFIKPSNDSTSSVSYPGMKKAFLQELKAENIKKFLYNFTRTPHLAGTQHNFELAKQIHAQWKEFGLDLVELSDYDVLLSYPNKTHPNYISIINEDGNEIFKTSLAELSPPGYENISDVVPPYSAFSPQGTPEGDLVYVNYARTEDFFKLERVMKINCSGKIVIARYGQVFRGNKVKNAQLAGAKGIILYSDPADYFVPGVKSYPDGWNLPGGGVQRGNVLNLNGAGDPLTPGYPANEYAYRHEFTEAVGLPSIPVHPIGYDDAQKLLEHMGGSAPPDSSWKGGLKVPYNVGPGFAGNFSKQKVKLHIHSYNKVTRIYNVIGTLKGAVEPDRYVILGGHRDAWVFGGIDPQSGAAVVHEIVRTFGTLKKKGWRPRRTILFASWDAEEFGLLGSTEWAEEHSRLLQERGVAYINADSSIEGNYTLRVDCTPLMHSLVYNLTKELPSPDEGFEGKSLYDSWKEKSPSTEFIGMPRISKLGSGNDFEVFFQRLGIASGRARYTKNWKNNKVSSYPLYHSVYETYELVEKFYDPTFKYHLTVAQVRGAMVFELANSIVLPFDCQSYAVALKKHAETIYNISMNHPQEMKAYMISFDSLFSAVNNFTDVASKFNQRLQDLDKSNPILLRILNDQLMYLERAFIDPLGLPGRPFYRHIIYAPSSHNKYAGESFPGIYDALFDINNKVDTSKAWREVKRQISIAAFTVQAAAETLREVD

SMILES: CC(=O)N[C@@H](CC(=O)O)C(=O)N[C@@H](CCC(=O)O)C(=O)O [NAAG, N-acetyl-aspartyl-glutamate] (Ac-Asp-Glu-OH)
- Km (NAALADase): 0.54 µM

SMILES: O=C(O)CCC(CCCS)C(=O)O (stereo not drawn) [Compound B, 2-(3-sulfanylpropyl)pentanedioic acid]
- BM THICKNESS (nm) ± SD (n = 3) (BB/W rats; [3]): 82.3±4.07 nm
- E/P RATIO (n = 8–10) (BB/W rats; [3]): 2.4±0.5
- BM THICKNESS (nm) ± SD (n = 3) (BB/W rats; [4]): 82.3 ± 4.07 nm
- E/P RATIO (n = 8–10) (BB/W rats; [4]): 2.4 ± 0.5
- BM THICKNESS (nm) ± SD (n = 3) (BB/W rats; [5]): 71.7±4.07 nm
- E/P RATIO (n = 8–10) (BB/W rats; [5]): 1.9±0.4
- BM THICKNESS (nm) ± SD (n = 3) (BB/W rats; [6]): 71.7 ± 4.07 nm
- E/P RATIO (n = 8–10) (BB/W rats; [6]): 1.9 ± 0.4
- reduction in BM thickness (BB/W rats; [7]): 29.0%
- reduction of E/P ratios (BB/W rats; [7]): 37%
- decrease in BM thickness (BB/W rats; [8]): 18.5%
- reduction of E/P ratios (BB/W rats; [8]): 20%
- FIBER NUMBER ± SEM (male Brown Norway rats [1]; 8 week group): 80785 ± 2121
- PERCENT DIFFERENCE ± SEM (male Brown Norway rats [1]; 8 week group, fiber number glaucoma vs normal eye, positive = fewer fibers in glaucoma eye): −0.82 ± 2.97%
- IOP INTEGRAL DIFFERENCE ± SEM (male Brown Norway rats [1]; 8 week group, glaucoma eye vs normal eye): 116 ± 33.2 mm Hg—days
- FIBER NUMBER (male Brown Norway rats [1]; 12 week group): 90504 ± 1718
- PERCENT DIFFERENCE (male Brown Norway rats [1]; 12 week group, fiber number glaucoma vs normal eye): −3.21 ± 2.86%
- IOP INTEGRAL DIFFERENCE (male Brown Norway rats [1]; 12 week group, glaucoma eye vs normal eye): 109 ± 45.2 mm Hg—days
- remaining axons relative to the saline-treated rats (male Brown Norway rats [2]; 2 weeks after transection): twice
- FIBER NUMBER ± SEM (male Brown Norway rats [2]; [9]): 19,550 ± 5,091
- PERCENT DIFFERENCE ± SEM (male Brown Norway rats [2]; [9]): 75.3 ± 6.6%
- FIBER NUMBER ± SEM (male Brown Norway rats [2]; [10]): 5,162 ± 2,509
- PERCENT DIFFERENCE ± SEM (male Brown Norway rats [2]; [10]): 93.4 ± 3.1%
